In PubChem BioAssay (NCI):
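Tested at 5 concentrations; 48 h exposure; 96-well plates; endpoints linearly interpolated, else capped at highest concentration. TGI denotes the concentration required for complete inhibition of growth.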

Experiments:
Experiment in all cases: NCI tumour cell line growth inhibition, 48 h
SW-620 colon = test system: SW-620 colon
EKVX NSCLC = test system: EKVX NSCLC
K-562 leukemia = test system: K-562 leukemia
SNB-75 CNS = test system: SNB-75 CNS
HOP-62 NSCLC = test system: HOP-62 NSCLC
SN12C renal = test system: SN12C renal
OVCAR-4 ovarian = test system: OVCAR-4 ovarian
HT29 colon = test system: HT29 colon
HCT-15 colon = test system: HCT-15 colon
SK-MEL-2 melanoma = test system: SK-MEL-2 melanoma
CAKI-1 renal = test system: CAKI-1 renal
COLO 205 colon = test system: COLO 205 colon
UACC-257 melanoma = test system: UACC-257 melanoma
HCT-116 colon = test system: HCT-116 colon
KM20L2 colon = test system: KM20L2 colon
SR leukemia = test system: SR leukemia
MOLT-4 leukemia = test system: MOLT-4 leukemia
UACC-62 melanoma = test system: UACC-62 melanoma
SF-268 CNS = test system: SF-268 CNS
RXF 393 renal = test system: RXF 393 renal
UO-31 renal = test system: UO-31 renal
SK-OV-3 ovarian = test system: SK-OV-3 ovarian
HOP-92 NSCLC = test system: HOP-92 NSCLC
TK-10 renal = test system: TK-10 renal
M19-MEL melanoma = test system: M19-MEL melanoma
SF-539 CNS = test system: SF-539 CNS
DMS 273 small cell lung = test system: DMS 273 small cell lung
MALME-3M melanoma = test system: MALME-3M melanoma
M14 melanoma = test system: M14 melanoma
SNB-78 CNS = test system: SNB-78 CNS
U251 CNS = test system: U251 CNS
SK-MEL-5 melanoma = test system: SK-MEL-5 melanoma
NCI-H522 lung = test system: NCI-H522 lung
DLD-1 colon = test system: DLD-1 colon
NCI-H23 lung = test system: NCI-H23 lung
IGROV1 ovarian = test system: IGROV1 ovarian
A498 renal = test system: A498 renal
LXFL 529 NSCLC = test system: LXFL 529 NSCLC
RXF-631 renal = test system: RXF-631 renal
A549 NSCLC = test system: A549 NSCLC
SNB-19 CNS = test system: SNB-19 CNS
CCRF-CEM leukemia = test system: CCRF-CEM leukemia
NCI-H460 lung = test system: NCI-H460 lung
NCI-H226 lung = test system: NCI-H226 lung
HL-60(TB) leukemia = test system: HL-60(TB) leukemia
OVCAR-5 ovarian = test system: OVCAR-5 ovarian
SF-295 CNS = test system: SF-295 CNS
SK-MEL-28 melanoma = test system: SK-MEL-28 melanoma
OVCAR-3 ovarian = test system: OVCAR-3 ovarian
786-0 renal = test system: 786-0 renal
HOP-18 NSCLC = test system: HOP-18 NSCLC
HCC-2998 colon = test system: HCC-2998 colon
KM12 colon = test system: KM12 colon
RPMI-8226 leukemia = test system: RPMI-8226 leukemia
XF 498 CNS = test system: XF 498 CNS
OVCAR-8 ovarian = test system: OVCAR-8 ovarian
ACHN renal = test system: ACHN renal
DMS 114 small cell lung = test system: DMS 114 small cell lung
LOX IMVI melanoma = test system: LOX IMVI melanoma

Measured: TGI

CCc1cc(CCC(=O)Nc2c(C)cccc2C)[nH]n1
not listed: DMS 114 small cell lung | LOX IMVI melanoma
> 100 µM: all other assays above

COC(C(=O)NCCCCNC(=O)C(OC)c1ccccc1)c1ccccc1 (stereo not given)
not listed: HCC-2998 colon
> 100 µM: all other assays above
